Literature values in US20210386729A1, “METHODS FOR TREATING LIVER DISORDERS USING FXR AGONISTS” (NOVARTIS AG, priority 2016, published 2021).

Conditions: clinical studies, PBC or NASH subjects; cited from earlier work

For CC[C@H]1[C@@H](O)[C@@H]2[C@H](CC[C@]3(C)[C@@H]([C@H](C)CCC(=O)O)CC[C@@H]23)[C@@]2(C)CC[C@@H](O)C[C@@H]12 [OCA, 6α-ethyl-chenodeoxycholic acid], the pruritus is listed as “may be associated with increased pruritus”.
